Data reported in article PMC8591608, “DNDI-6148: A Novel Benzoxaborole Preclinical Candidate for the Treatment of Visceral Leishmaniasis” (Journal of Medicinal Chemistry, 2021).
Converted amounts (≈) assume the structure as drawn. Read-outs that look alike come from different tables or passages of the source.

What was measured:
CYP2D6 = CYP2D6 (Homo sapiens, UniProt P10635); assay: CYP inhibition, CYP2D6; format: in vitro ADME; conditions: human liver microsomes
Method: (§1) The study was conducted by WuXi AppTec, Co., China, using the time-dependent (TDI) method. […] Following incubation with substrates (phenacetin for 1A2, diclofenac for 2C9, S-(+) mephenytoin for 2C19, dextromethorphan for 2D6, and midazolam or testosterone for 3A4), reactions were stopped by adding ice-cold acetonitrile, the samples were analyzed for the formation of metabolites by LC-MS/MS, and the percentage of inhibition was determined.

[1] = In vivo pharmacokinetics in dog; design: species or system male Beagle dogs; conditions: for MRT inf: read-out: MRT0-inf; for MRT last: read-out: MRT0-last
Method: DNDI-6148 was administrated intravenously at 1 mg/kg and orally at 5 mg/kg to male Beagle dogs. The formulation for the i.v. leg was 2% ethanol, 1.0 mol equiv NaOH, dextrose (5% solution) filtered, and adjusted to pH 7, and for the p.o. leg, the formulation was 2% ethanol, 1.0 mol equiv NaOH, and dextrose (5% solution). The K2-EDTA anticoagulant was added to blood samples collected at predose, 0.033 (i.v. only), 0.083 (p.o. only), 0.25, 0.5, 1, 3, 6, 9, and 24 h, and were stabilized with phosphoric acid (1% final) before analysis by LC-MS/MS. PK parameters were calculated using WinNonlin software (version 6.3).

CYP3A4 = CYP3A4 (Homo sapiens, UniProt P08684); assay: CYP inhibition, CYP3A4; format: in vitro ADME; conditions: human liver microsomes
Sequence of CYP3A4 (P08684 2-503 limits assumed): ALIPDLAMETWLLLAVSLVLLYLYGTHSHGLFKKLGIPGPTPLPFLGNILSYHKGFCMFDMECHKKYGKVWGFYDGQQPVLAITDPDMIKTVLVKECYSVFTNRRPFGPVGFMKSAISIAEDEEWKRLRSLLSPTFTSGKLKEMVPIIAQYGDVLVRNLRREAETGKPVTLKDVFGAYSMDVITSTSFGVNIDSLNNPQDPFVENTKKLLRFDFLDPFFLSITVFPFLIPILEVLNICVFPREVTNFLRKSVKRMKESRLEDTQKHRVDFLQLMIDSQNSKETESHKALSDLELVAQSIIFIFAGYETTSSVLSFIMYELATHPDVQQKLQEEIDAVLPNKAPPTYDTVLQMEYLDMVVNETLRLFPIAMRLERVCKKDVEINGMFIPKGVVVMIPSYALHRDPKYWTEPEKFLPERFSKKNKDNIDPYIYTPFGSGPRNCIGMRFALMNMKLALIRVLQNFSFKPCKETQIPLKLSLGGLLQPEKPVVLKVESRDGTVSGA
Method: as §1

[2] = system: wild-type L. donovani promastigotes; assay: Drug sensitivity, wild-type L. donovani promastigotes; format: cell-based; conditions: Leishmania donovani, Figure 2D
Method: (§2) The clonal L. donovani cell line LdBOB (derived from MHOM/SD/62/1S-CL2D) was grown as promastigotes at 28 °C, as described previously. Bloodstream form T. brucei MiTat 1.2 clone 221a and its derived subline, 2T1, were cultured at 37 °C in the presence of 5% CO2 in HMI9-T medium, as described previously. T. brucei cell lines overexpressing CPSF3 and overexpressing a mutated version of CPSF3 (Asn232His) were generated as part of a previous study and cultured as described.[19]
(§3) Drug sensitivity assays with wild-type and transgenic T. brucei and L. donovani cell lines were carried out as previously described.[31],[32]

CYP2C9 = CYP2C9 (Homo sapiens, UniProt P11712); assay: CYP inhibition, CYP2C9; format: in vitro ADME; conditions: human liver microsomes
Sequence of CYP2C9 (P11712 whole entry): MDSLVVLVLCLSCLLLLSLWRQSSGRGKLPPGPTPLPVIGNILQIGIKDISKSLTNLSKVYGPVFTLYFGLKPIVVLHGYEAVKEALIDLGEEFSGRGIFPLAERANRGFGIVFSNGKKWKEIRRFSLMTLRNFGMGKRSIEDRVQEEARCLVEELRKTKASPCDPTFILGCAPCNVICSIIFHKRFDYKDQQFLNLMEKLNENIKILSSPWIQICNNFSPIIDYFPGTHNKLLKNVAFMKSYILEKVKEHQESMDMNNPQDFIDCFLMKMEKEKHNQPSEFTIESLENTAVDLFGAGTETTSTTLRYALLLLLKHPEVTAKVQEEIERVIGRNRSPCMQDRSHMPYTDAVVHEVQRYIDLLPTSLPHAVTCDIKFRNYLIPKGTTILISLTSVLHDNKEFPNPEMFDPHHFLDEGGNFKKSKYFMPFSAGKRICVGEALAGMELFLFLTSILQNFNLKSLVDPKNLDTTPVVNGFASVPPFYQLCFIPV
Method: as §1

[3] = Liver microsome stability, mouse; format: in vitro ADME; conditions: Balb/c, mouse liver microsomes, pH 7.4
Method: Tests were performed by WuXi AppTec, China. Test compounds (at 1 μM) or positive controls (testosterone, propafenone, and diclofenac) were incubated at 37 °C with liver microsomes from Balb/c mouse, golden (Syrian) hamster, Sprague-Dawley rat, Beagle dog, or human in the presence of a NADPH regenerating system and phosphate buffer (100 mM, pH 7.4) at 0.4 or 0.8 mg/mL microsomal protein. The samples were removed at time intervals from 0 to 60, 90, or 120 min and immediately mixed with cold methanol supplemented or not with acid (3% formic acid) and centrifuged prior to analysis by LC-MS/MS using tolbutamide or propranolol as internal standards.

[4] = Metabolite identification in microsomes; format: in vitro ADME, rat, mouse, dog, human, hamster
Method: Metabolite identification studies were conducted at WuXi AppTec, China. DNDI-6148 was incubated at 10 μM in the presence of Beagle dog and Sprague-Dawley rat liver microsomes (1 mg/mL) for 60 min. Following precipitation with a solution of formic acid and acetonitrile, metabolites were identified by LC-UV-MSn (n = 1–2).

Thermodynamic solubility = format: physicochemical
Method: The thermodynamic solubility was measured by WuXi AppTec, China. Aliquots of the compound DMSO stock (10 mM) were transferred to fasted state simulated intestinal fluid (FaSSIF) buffer (pH 6.5) or fed state simulated intestinal fluid (FeSSIF) buffer (pH 5.0), and the mixtures were shaken for 24 h at room temperature. Following sampling by a Whatman filter device, the compound concentrations were determined by UV spectroscopy.

[5] = system: CPSF3 (Asn219His)-overexpressing L. donovani promastigotes; assay: Drug sensitivity, CPSF3 (Asn219His)-overexpressing L. donovani promastigotes; format: cell-based; conditions: Leishmania donovani
Method: as §2
L. donovaniCPSF3 gene (LdBPK_343210.1) was custom synthesized by GeneArt and ligated into the pIR1SAT vector via BglII restriction sites. Using the Q5 mutagenesis kit (NEB) and the pIR1SAT-LdCPSF3^WT construct as a template, mutations encoding A655C and Asn219His change to CPSF3^WT were introduced. Mutations were introduced using the specific primers 5′-GAGTACACGGCATCCGC-3′ and 5′-[…]-3′ and as per manufacturers’ instructions. Wild-type and mutated pIR1SAT constructs were digested with SwaI and transfected into L. donovani promastigotes, as previously described. Resistant clones were selected with nourseothricin (100 μg/mL), and two clones per transfection were selected for further study.
as §3

[6] = male, Beagle, plasma, IV 1.0 mg/kg, mean
[7] = male, Beagle, plasma, PO 5 mg/kg, mean
[8] = male, Beagle, plasma, iv, i.v. 1 mg/kg

Sequence of CYP2D6 (P10635 whole entry): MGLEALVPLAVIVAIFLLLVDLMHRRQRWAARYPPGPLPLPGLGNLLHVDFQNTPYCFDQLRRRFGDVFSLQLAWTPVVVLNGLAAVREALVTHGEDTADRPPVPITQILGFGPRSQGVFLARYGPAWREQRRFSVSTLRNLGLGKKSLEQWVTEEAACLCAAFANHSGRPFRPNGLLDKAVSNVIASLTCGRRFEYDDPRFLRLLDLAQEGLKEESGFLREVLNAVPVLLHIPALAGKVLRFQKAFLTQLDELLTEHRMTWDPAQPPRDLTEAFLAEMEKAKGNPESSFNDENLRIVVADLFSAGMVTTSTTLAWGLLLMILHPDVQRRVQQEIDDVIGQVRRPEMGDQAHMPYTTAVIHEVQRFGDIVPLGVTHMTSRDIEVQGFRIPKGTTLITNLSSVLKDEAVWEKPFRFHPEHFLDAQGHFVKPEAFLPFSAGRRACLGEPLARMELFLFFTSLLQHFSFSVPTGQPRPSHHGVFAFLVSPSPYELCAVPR

`Cc1c(C(=O)Nc2ccc3c(c2)B(O)OC3)nnn1-c1ccccn1` [Compound 23, N-(1-Hydroxy-1,3-dihydrobenzo[c][1,2]oxaborol-6-yl)-5-methyl-1-(pyridin-2-yl)-1H-1,2,3-triazole-4-carboxamide] gave an IC50 (CYP2D6) greater than 50000 nM, an AUC0-inf/AUC0-last ([1]; IV 1.0 mg/kg, mean) of 102% and a Tlast ([1]; IV 1.0 mg/kg, mean) of 9.00 h. For the same molecule, the AUC0-inf/AUC0-last ([1]; PO 5 mg/kg, mean) was 103%, the Tlast ([1]; PO 5 mg/kg, mean) was 9.00 h and the concentration at 0.033 h ([1]; male, Beagle, plasma, IV 1.0 mg/kg, 0.033 h, mean) was 1560 ng/mL. For the same molecule, the concentration at 5 min [1, 6] was 1120 ng/mL, the concentration at 0.25 h [1, 6] was 644 ng/mL and the concentration at 0.5 h [1, 6] was 534 ng/mL. It also gave a concentration at 1 h [1, 6] of 373 ng/mL, a concentration at 3 h [1, 6] of 97.7 ng/mL and a concentration at 6 h [1, 6] of 23 ng/mL. It also gave a concentration at 9 h [1, 6] of 8.8 ng/mL, a concentration at 24 h [1, 6] of 0.9 ng/mL and an AUC(0-inf) [1, 6] of 1270 ng·h/mL. The AUC(0-t) [1, 6] was 1240 ng·h/mL, the C0 [1, 6] was 1930 ng/mL and the half-life [1, 6] was 1.49 h. The MRT inf [1, 6] was 1.66 h, the MRT last [1, 6] was 1.51 h and the Vd ([1]; male, Beagle, plasma, IV 1.0 mg/kg, mean, read-out: Vdss) was 1.31 L/kg. For the same molecule, the concentration at 5 min [1, 7] was 266 ng/mL, the concentration at 0.25 h [1, 7] was 1130 ng/mL and the concentration at 0.5 h [1, 7] was 881 ng/mL. The concentration at 1 h [1, 7] was 814 ng/mL, the concentration at 3 h [1, 7] was 357 ng/mL and the concentration at 6 h [1, 7] was 54.8 ng/mL. It also gave a concentration at 9 h [1, 7] of 25.5 ng/mL, a concentration at 24 h [1, 7] of 0.9 ng/mL and an AUC(0-inf) [1, 7] of 2530 ng·h/mL. It also gave an AUC(0-t) [1, 7] of 2470 ng·h/mL, a Cmax [1, 7] of 1220 ng/mL and a Tmax [1, 7] of 0.63 h. It also gave a half-life [1, 7] of 1.46 h, an MRT inf [1, 7] of 2.42 h and an MRT last [1, 7] of 2.19 h. For the same molecule, the Vd at 24 h [1, 8] was 1.3 L/kg, the clearance [1, 8] was 13.7 mL/min/kg and the half-life at 24 h [1, 8] was 1.5 h. It also gave a bioavailability at 24 h ([1]; male, Beagle, plasma, po, p.o. 5 mg/kg) of 39%, an IC50 (CYP3A4) greater than 50000 nM and an EC50 [2] of 411 ± 12 nM. For the same molecule, the IC50 (CYP2C9) was greater than 50000 nM, the microsomal CLint at 1 μM [3] was less than 11.9 µL/min/mg and the reactive metabolite formation ([4]; microsomes, any species) was “no evidence of reactive metabolite formation”. The “metabolism in rat microsomes” value ([4]; rat microsomes) was “No metabolism was detected”, the solubility at 24 h (Thermodynamic solubility; FaSSIF buffer pH 6.5, read-out: FaSSIF solubility) was 5.4 µg/mL (≈ 16.1 µM) and the solubility at 24 h (Thermodynamic solubility; FeSSIF buffer pH 5.0, read-out: FeSSIF solubility) was 6.3 µg/mL (≈ 18.8 µM). For the same molecule, the EC50 [5] was 1670 ± 51 nM.
